Key:
[1] = Plasma lipids in very young ob/ob mice; assay type: in vivo; settings: very young ob/ob mice (6 weeks at the beginning)
Experimental: (§1) Plasma lipids (triglycerides, total cholesterol, phospholipids) were measured on an automatic analyser (Hitachi 717®). The commercial kits used to assess triglycerides, total cholesterol and phospholipids on this analyser were all from bioMérieux (references 61238, 61219 and 61491, respectively). Plasma non esterified fatty acids (NEFA) were assessed by using a commercial kit (Wako, reference 994-75409). Hepatic and plasma lipids were performed at the end of six weeks of treatment in animals that have been fasted for 48 hours. Triglycerides and HDL-cholesterol were also assessed after 2 months (in the fed state) or after 4 months of treatment (after an overnight fast).
Accordingly, plasma triglycerides were 1.35 and 1.39 mmol/L in ob/ob mice in the present study, whereas much higher levels (1.96 mmol/L) were found in Swiss mice fed with the western diet (see above). Thus, it remains possible that the beneficial effects of BAIBA on plasma lipids are more pronounced when lipid levels are above a certain threshold. In keeping with this notion, BAIBA reduced by 22% plasma triglycerides in mice fed with the western diet (FIG. 6).

[2] = Plasma HDL-cholesterol and triglycerides in ob/ob mice during a 4-month treatment; assay type: in vivo
Experimental: as §1
Plasma HDL-cholesterol and alanine aminotransferase (ALT) were measured on an automatic analyser (Olympus AU400®) with commercial kits (Olympus Diagnostica GmbH, references OSR6187 and OSR6107, respectively).
In this series of experiments, plasma lipids, and especially HDL-cholesterol were assessed in ob/ob mice during a 4-month period of treatment. Mice were fed with standard diet. Ob/ob mice were treated for 4 months with β-aminoisobutyric acid, administered either at the usual dose (100 mg/kg/day) or at a higher dose (500 mg/kg/day). After two months, measurements were done in the fed state, while at the end of the treatment (i.e. after 4 months) plasma parameters were assessed after a overnight fasting period (i.e. 15 hours). One mice in the control group died between the third and fourth month of treatment.
The number of mice at the end of the experiment was 6,7 and 8, respectively in the control group and the groups treated with 100 and 500 mg/kg/day of β-aminoisobutyric acid. It is noteworthy that the animals studied in this experiment are the same than those cholesterol. Indeed, HDL-cholesterol was 3.26±0.33, 3.45±0.31 and 3.64±0.31 mmol/L, respectively in control mice and mice treated with 100 and 500 mg/kg/day of β-aminoisobutyric acid. Plasma triglycerides tended to be decreased in treated mice. Triglycerides were indeed 1.37±0.13, 1.09±0.06 and 1.25±0.17 mmol/L, respectively in control mice and mice treated with 100 and 500 mg/kg/day of β-aminoisobutyric acid.

[3] = Plasma glucose, insulin, adiponectin and leptin in lean mice, standard diet, 6 weeks, 48 hours fast; assay type: in vivo; settings: 100 mg/kg/day 6 weeks, fasted 48 hours
Experimental: (§2) Plasma glucose was measured on an automatic analyser (Synchron LX20 from Beckman Coulter) with a commercial kit (kit n°472500 from Beckman).
(§3) Plasma insulin, adiponectin and leptin were measured by radioimmunoassay (RIA). Insulin was measured with the Insulin-CT kit from Cis Bio International (Gif-sur-Yvette, France), whereas plasma leptin and adiponectin were assessed with kits from Linco Research Inc. (St Charles, Mo.). Leptin was not measured in ob/ob mice since these animals are genetically leptin-deficient (Friedman J. M., Halaas J. L., 1998, Nature 395: 763-770). Results regarding insulin were expressed as recommended by kit manufacturer.
Glucose, insulin, adiponectine and leptin were assessed in lean mice fed with the standard diet and receiving (13 mice) or not (12 mice) 100 mg/kg/day of β-aminoisobutyric acid in the drinking water for 6 weeks.
At the end of the 6-weeks period of treatment, mice were submitted to a fasting period for 48 hours. Plasma glucose, insulin and adiponectin were not changed in treated mice, but a trend toward lower leptin levels was observed. Indeed, plasma leptin was 3.72±0.59 and 3.14±0.34 ng/ml, respectively in control mice (n=12) and mice treated with β-aminoisobutyric acid (n=13). Leptin is an adipokine mainly secreted by adipose tissue and its plasma levels in human and mice are highly correlated with the whole adipose tissue mass (Friedman J. M. and Hallas J. L., 1998, Nature 395: 763-770). Thus, data regarding plasma leptin are in keeping with the observation that β-aminoisobutyric acid limits body fat accumulation in lean mice.

[4] = Plasma glucose and insulin in obese ob/ob mice (10 to 12-weeks old), 6 weeks; assay type: in vivo
Experimental: as §2, §3
In obese ob/ob mice (10 to 12-weeks old) treated with 100 mg/kg/d of β-aminoisobutyric acid for 6 weeks and fasted for the last 48 hours, there was a trend toward lower plasma levels of glucose and insulin. Indeed, plasma glucose was 11.1±1.4 and 9.0±0.9 mmol/L, respectively in control ob/ob mice (n=6) and mice treated with β-aminoisobutyric acid (n=8). Plasma insulin was 37±19 and 24±6 μU/ml, respectively in control mice (n=4) and mice treated with β-aminoisobutyric acid (n=5). […] Indeed, insulin was 83±13 and 64±7 μU/ml, respectively in control mice (n=5) and mice treated with β-aminoisobutyric acid (n=5).

[5] = Plasma glucose, insulin and adiponectin in very young ob/ob mice (5-6 weeks old), 6 weeks; assay type: in vivo
Experimental: as §2, §3
In another experiment, very young ob/ob mice (5-6 weeks old) were treated with 100 mg/kg/d of β-aminoisobutyric acid for 6 weeks and fasted for the last 48 hours. Although plasma glucose was not decreased in treated mice, there was a clear trend toward lower insulin and higher adiponectin. Indeed, plasma insulin was 56±9 and 37±5 μU/ml (p=0.08), respectively in control mice (n=7) and mice treated with β-aminoisobutyric acid (n=7). Plasma adiponectin was 8.0±1.1 and 10.9±1.2 μg/ml (p=0.08), respectively in control mice (n=7) and mice treated with β-aminoisobutyric acid (n=7).

[6] = tested on: mitochondrial beta-oxidation of fatty acids in liver; assay: Mitochondrial beta-oxidation of fatty acids in liver
[7] = 100 mg/kg/day, after 4 months, fasted state
[8] = 100 mg/kg/day, first time point (two months, fed state)
[9] = 500 mg/kg/day, after 4 months, fasted state
[10] = 500 mg/kg/day, first time point (two months, fed state)
[11] = 100 mg/kg/d 6 weeks, ob/ob 10 to 12-weeks old, fasted 48 hours
[12] = obese mice, standard diet, 6 weeks
[13] = 100 mg/kg/d 6 weeks, very young ob/ob, fasted 48 hours, p=0.08

CC(CN)C(=O)O (racemic) [BAIBA, D,L-β-Aminoisobutyric acid] gave a plasma phospholipids [1] of 4.35 ± 0.11 mmol/L, a plasma total cholesterol [1] of 4.96 ± 0.15 mmol/L and a plasma triglycerides [1] of 1.07 ± 0.03 mmol/L. The “reduction of plasma phospholipids” value [1] was 4%, the “reduction of total cholesterol” value [1] was 5% and the HDL-cholesterol [2, 7] was 4.01 ± 0.30 mmol/L. The plasma triglycerides [2, 7] was 1.34 ± 0.08 mmol/L, the HDL-cholesterol [2, 8] was 3.45 ± 0.31 mmol/L and the plasma triglycerides [2, 8] was 1.09 ± 0.06 mmol/L. The HDL-cholesterol [2, 9] was 3.98 ± 0.31 mmol/L, the plasma triglycerides [2, 9] was 1.26 ± 0.07 mmol/L and the HDL-cholesterol [2, 10] was 3.64 ± 0.31 mmol/L. For the same compound, the plasma triglycerides [2, 10] was 1.25 ± 0.17 mmol/L, the “plasma adiponectin vs control” value [3] was “not changed” and the “plasma glucose vs control” value [3] was “not changed”. The “plasma insulin vs control” value [3] was “not changed”, the plasma leptin [3] was 3.14 ± 0.34 ng/mL and the plasma glucose [4, 11] was 9.0 ± 0.9 mmol/L. For the same compound, the plasma insulin [4, 11] was 24±6 μU/ml, the plasma insulin ([4]; 100 mg/kg/d 6 weeks, ob/ob 10 to 12-weeks old, fed state) was 64±7 μU/ml and the “decrease of the glucose plasma level” value [4, 12] was “around 20%”. The “decrease of the insulin plasma level” value [4, 12] was “around 35%”, the “plasma glucose vs control” value ([5]; 100 mg/kg/d 6 weeks, very young ob/ob, fasted 48 hours) was “not decreased” and the plasma adiponectin [5, 13] was 10.9 ± 1.2 µg/mL. For the same compound, the plasma insulin [5, 13] was 37±5 μU/ml, the “increase of plasma level of adiponectin” value ([5]; obese mice) was “around 35%” and the “mitochondrial beta-oxidation of fatty acids in liver” value [6] was “increases”.

Reference: US20060167098A1, “Method for the treatment of diseases linked to an accumulation of triglycerides and cholesterol” (Institut National De La Sante ET De LA Recherche Medicale …, priority 2003, published 2006)
